Results: patent publication US20080058400A1, “Skin external preparation” (FUJIFILM CORPORATION, priority 2006, published 2008)

Tests used:
[1] = system: Human normal epidermal keratinocytes; assay: Amino acid deficient medium culturing test; assay type: cell-based; conditions: for Relative ratio: number of cells, named amino acid reduced to 10% by weight of general MCDB 153 medium concentration, 5 days culture, non-deficient medium = 100; for growth of human epidermal keratinocytes in deficient medium: medium deficient in the named amino acid
Description: Human normal epidermal keratinocytes (Sanko Junyaku) were used as the cells. […] The cells were pre-cultured at 37° C., under an atmosphere of 5% (v/v) CO2 until they became a semi-confluent state.
The keratinocytes cultured under a growing state in a T 75 flask were used. After removing the medium by suction, 5 ml of 0.25% trypsin solution was added thereto and incubated at room temperature for 10 minutes. A 10 ml portion of the medium was added thereto, and the cells were peeled off and recovered by pipetting. The thus obtained cell suspension was centrifuged at 1,000 rpm for 5 minutes, and the supernatant was discarded. The thus obtained cell pellet was suspended in 10 ml of the medium and centrifuged at 1,000 rpm for 5 minutes, and the supernatant was discarded. The thus obtained cell pellet was again suspended in 10 ml of the medium and centrifuged at 1,000 rpm for 5 minutes, and the supernatant was discarded. The thus obtained cell pellet was suspended in 2 ml of the medium, and the number of cells was counted.
As growth factors, 50 mg/l of BPE (bovine pituitary gland extract), 5 mg/l of insulin, 0.1 mM ethanolamine, 0.1 mM phosphoethanolamine and 0.00001 mg EGF ([…]) were added thereto. The aforementioned cells were mixed with 1 ml of this medium at a density of 3×10^4 cells, inoculated onto a 24 well plate and cultured at 37° C. for 5 days under an atmosphere of 5% (v/v) CO2, and then the number of cells was counted.

[2] = system: abdominal skin of male hairless mice; conditions: for Permeability (%) of the permeated whole amino acids: male, hairless, mouse, 24 h, 1 % by weight
Description: The skin sample was attached to a Keshany-Chien type diffusion cell. A 1 ml portion of each test liquid (described later) was added to the donor phase, and its upper side was sealed with Para Film. A 0.01 mol/l phosphate buffered saline (Wako Pure Chemical Industries) was added to the receptor phase, stirred and incubated at 32° C., and amounts of amino acids were determined by an HPLC method 24 hours later to calculate permeation ratio.
Using an HPLC amino acid analysis system of Shimadzu Corp. (Prominence), the determination was carried out by a post column fluorescence detection method which uses OPA (ortho-phthalaldehyde) as a reaction reagent.

Permeability of each amino acid [2] | Permeability (%) of the permeated whole amino acids [2] | SMILES | Relative ratio [1] | growth of human epidermal keratinocytes in deficient medium [1]
7.4% |  | CSCC[C@H](N)C(=O)O [Methionine] | 12 | 
15.2% |  | N[C@@H](Cc1c[nH]cn1)C(=O)O [Histidine] | 7 | growth was suppressed
7.9% |  | O=C(O)[C@@H]1CCCN1 [Proline] | 13 | 
15.2% |  | N[C@@H](CO)C(=O)O [Serine] | 6 | growth was suppressed
21.3% |  | CC(C)C[C@H](N)C(=O)O [Leucine] | 6 | growth was suppressed
19.3% |  | C[C@@H](O)[C@H](N)C(=O)O [Threonine] | 8 | growth was suppressed
14.7% |  | N[C@@H](CS)C(=O)O [Cysteine] | 9 | growth was suppressed
8.4% |  | C[C@H](N)C(=O)O [Alanine] | 14 | 
 |  | N[C@@H](CCC(=O)O)C(=O)O [Glutamic acid] | 15 | 
20.8% |  | CC[C@H](C)[C@H](N)C(=O)O [Isoleucine] | 7 | growth was suppressed
19.1% |  | N[C@@H](CC(=O)O)C(=O)O [Aspartic acid] | 6 | growth was suppressed
14.3% |  | NCC(=O)O [Glycine] | 9 | growth was suppressed
14.2% |  | NC(=O)C[C@H](N)C(=O)O [Asparagine] | 13 | 
 | 9.6% | OC[C@H]1OC(O)[C@H](O)[C@@H](O)[C@@H]1O (stereo partly shown) [Glucose] |  | 
14.9% |  | CC(C)[C@H](N)C(=O)O [Valine] | 9 | growth was suppressed
 |  | N[C@@H](Cc1ccc(O)cc1)C(=O)O [Tyrosine] |  | growth was suppressed
 | 7.2% | OC[C@H]1O[C@H](O[C@H]2O[C@H](CO)[C@@H](O)[C@H](O)[C@H]2O)[C@H](O)[C@@H](O)[C@@H]1O [Trehalose] |  | 
10.2% |  | NC(=O)CC[C@H](N)C(=O)O [Glutamine] | 16 | 
15.1% |  | N[C@@H](Cc1ccccc1)C(=O)O [Phenylalanine] | 4 | growth was suppressed

SMILES | Permeability of each amino acid [2] | Permeability (%) of the permeated whole amino acids [2] | Relative ratio [1] | growth of human epidermal keratinocytes in deficient medium [1]
NCCCC[C@H](N)C(=O)O [Lysine] | 19.6% |  | 9 | growth was suppressed
N[C@@H](Cc1c[nH]c2ccccc12)C(=O)O [Tryptophan] | 3.6% |  | 15 | 
N=C(N)NCCC[C@H](N)C(=O)O [Arginine] | 18.1% |  | 8 | growth was suppressed
